# Data reported in patent US20030166007A1, “Chemical proteomics” (MDS Proteomics Inc., priority 2002, published 2003).
# Entries after “also recorded” stand apart in the source; their conditions may differ.
# Columns and labels:
# Nudix 5 = molecular target: T1, Nudix 5 (Homo sapiens, UniProt Q9UKK9); assay: MTX-agarose affinity chromatography of cell lysate, MS identification; type: binding; conditions: HEK 293 lysate
# T1 construct: endogenous in cells; host or cells: HEK 293
# Protocol: (§1) After incubation for 30 minutes at 4° C. with shaking, the lysates were clarified by centrifugation (27,000×g). In some experiments, cells were lysed using 20 strokes of a Dounce® homogenizer in the absence of detergents. […] While optimizing the protocol, however, several experimental variations were tested on cell lysates including concentration by ammonium sulfate precipitation, or removal of nucleic acid with Streptomycin sulfate. In such cases, the protein sample was desalted using a PD 10 protein-desalting column (Pharmacia), which had been pre-equilibrated in the same buffer (10 mM potassium phosphate pH 7.5)
# (§2) Affinity Chromatography: The desalted lysate was loaded onto a column of pre-equilibrated MTX-agarose (Sigma, 50 μL bed volume) or sepharose 4B agarose as a negative control. The lysates were allowed to slowly flow through the matrix under gravity flow. […] Retentates from the microcons were then loaded onto SDS-PAGE 4%-15% gradient mini gels (Bio-Rad). […]
# (§3) The peptides were then separated by reverse phase chromatography on C18 resin and directly injected into a mass spectrometer using an automated sample-loading device from 96 well plates. […] The spectra generated were analyzed on a custom-built multi-node server platform (RADARS, ProteoMetrics), which uses two database searching programs, Sonar (ProteoMetrics) and Mascot (Matrix Sciences). […]
# [1] = molecular target: T2, Hypoxanthine phosphoribosyltransferase (HPRT) (Homo sapiens, UniProt P00492); assay: as above; type: binding; conditions: HEK 293 lysate, lane 9
# T2 construct: endogenous in cells; host or cells: HEK 293
# T2 sequence (P00492 1-218): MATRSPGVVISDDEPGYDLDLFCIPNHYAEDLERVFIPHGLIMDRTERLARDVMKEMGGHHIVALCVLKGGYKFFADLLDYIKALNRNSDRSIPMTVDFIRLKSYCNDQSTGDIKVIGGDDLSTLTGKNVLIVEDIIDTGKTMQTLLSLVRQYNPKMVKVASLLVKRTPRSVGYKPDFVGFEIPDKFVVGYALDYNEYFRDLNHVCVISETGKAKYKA
# Protocol: as §1, §2, §3
# [2] = tested on: Inosine monophosphate dehydrogenase; assay: as above; type: binding, human; conditions: HEK 293 lysate
# Protocol: as §1, §2, §3
# HPRT = molecular target: T3, HPRT (Homo sapiens, UniProt P00492); conditions: cited from earlier work
# T3 sequence (P00492 1-218): T2 sequence (P00492 1-218)
# Glycogen Phosphorylase = assay: MTX-agarose affinity chromatography of cell lysate, MS identification; type: binding, human; conditions: HEK 293 lysate
# Protocol: as §1, §2, §3
# [3] = molecular target: Amido phosphoribosyltransferase (Homo sapiens, UniProt Q06203); assay: as above; type: binding; set-up: endogenous in cells; host or cells: HEK 293 (also Jurkat, K562, A431); conditions: lysates from HEK293, Jurkat, K562 and A431
# Chain of Amido phosphoribosyltransferase (Q06203 12-517): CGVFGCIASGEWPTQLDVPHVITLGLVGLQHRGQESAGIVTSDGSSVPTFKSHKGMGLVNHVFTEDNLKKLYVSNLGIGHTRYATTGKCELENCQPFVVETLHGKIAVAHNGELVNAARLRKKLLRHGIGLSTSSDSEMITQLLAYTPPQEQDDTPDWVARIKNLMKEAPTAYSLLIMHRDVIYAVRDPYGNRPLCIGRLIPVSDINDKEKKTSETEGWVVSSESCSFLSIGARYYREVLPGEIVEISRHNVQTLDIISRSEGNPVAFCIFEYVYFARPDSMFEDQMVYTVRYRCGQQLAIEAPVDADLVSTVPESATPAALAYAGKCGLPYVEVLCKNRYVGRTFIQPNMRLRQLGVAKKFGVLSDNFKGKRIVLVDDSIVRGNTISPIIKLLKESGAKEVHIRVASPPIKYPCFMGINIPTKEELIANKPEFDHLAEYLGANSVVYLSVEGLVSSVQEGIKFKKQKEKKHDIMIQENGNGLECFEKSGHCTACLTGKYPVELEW
# Protocol: as §1, §2, §3
# Nudix 1 = molecular target: T4, Nudix 1 (Homo sapiens, UniProt P36639); assay: as above; type: binding; conditions: HEK 293 lysate
# T4 construct: endogenous in cells; host or cells: HEK 293
# Protocol: as §1, §2, §3
# [4] = tested on: Glycinamideribonucleotide synthase (GARS); assay: as above; type: binding, human; conditions: HEK 293 lysate; 110 kDa trifunctional protein and separate 50 kDa band
# Protocol: as §1, §2, §3
# AIR carboxylase = molecular target: T5, AIR carboxylase (Homo sapiens, UniProt P22234); assay: as above; type: binding; conditions: HEK 293 lysate
# T5 construct: endogenous in cells; host or cells: HEK 293
# T5 sequence (P22234 1-425): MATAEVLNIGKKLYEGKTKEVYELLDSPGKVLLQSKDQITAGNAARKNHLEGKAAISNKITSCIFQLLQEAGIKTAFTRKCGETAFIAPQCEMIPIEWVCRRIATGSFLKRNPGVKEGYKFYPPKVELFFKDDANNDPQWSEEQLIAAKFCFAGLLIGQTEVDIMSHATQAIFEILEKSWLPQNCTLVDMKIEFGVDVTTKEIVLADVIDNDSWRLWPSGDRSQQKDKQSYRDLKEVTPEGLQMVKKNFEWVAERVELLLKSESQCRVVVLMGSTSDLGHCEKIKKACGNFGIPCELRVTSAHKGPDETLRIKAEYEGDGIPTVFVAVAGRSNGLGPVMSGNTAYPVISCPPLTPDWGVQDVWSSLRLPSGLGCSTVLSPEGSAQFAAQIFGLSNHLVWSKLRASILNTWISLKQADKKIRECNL
# Protocol: as §1, §2, §3
# [5] = molecular target: T6, Divalent Cation tolerant protein CUTA (Homo sapiens, UniProt O60888); assay: as above; type: binding; conditions: HEK 293 lysate
# T6 construct: endogenous in cells; host or cells: HEK 293
# T6 sequence (O60888 33-179): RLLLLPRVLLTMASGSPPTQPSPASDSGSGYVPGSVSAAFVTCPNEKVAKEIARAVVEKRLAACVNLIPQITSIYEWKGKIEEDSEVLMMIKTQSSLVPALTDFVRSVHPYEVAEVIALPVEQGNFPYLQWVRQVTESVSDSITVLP
# Protocol: as §1, §2, §3
# [6] = molecular target: T7, Propionyl CoA carboxylase (Homo sapiens, UniProt P05165+P05166); assay: as above; type: binding; conditions: HEK 293 lysate
# T7 construct: endogenous in cells; host or cells: HEK 293
# T7 sequence (P05165 53-728): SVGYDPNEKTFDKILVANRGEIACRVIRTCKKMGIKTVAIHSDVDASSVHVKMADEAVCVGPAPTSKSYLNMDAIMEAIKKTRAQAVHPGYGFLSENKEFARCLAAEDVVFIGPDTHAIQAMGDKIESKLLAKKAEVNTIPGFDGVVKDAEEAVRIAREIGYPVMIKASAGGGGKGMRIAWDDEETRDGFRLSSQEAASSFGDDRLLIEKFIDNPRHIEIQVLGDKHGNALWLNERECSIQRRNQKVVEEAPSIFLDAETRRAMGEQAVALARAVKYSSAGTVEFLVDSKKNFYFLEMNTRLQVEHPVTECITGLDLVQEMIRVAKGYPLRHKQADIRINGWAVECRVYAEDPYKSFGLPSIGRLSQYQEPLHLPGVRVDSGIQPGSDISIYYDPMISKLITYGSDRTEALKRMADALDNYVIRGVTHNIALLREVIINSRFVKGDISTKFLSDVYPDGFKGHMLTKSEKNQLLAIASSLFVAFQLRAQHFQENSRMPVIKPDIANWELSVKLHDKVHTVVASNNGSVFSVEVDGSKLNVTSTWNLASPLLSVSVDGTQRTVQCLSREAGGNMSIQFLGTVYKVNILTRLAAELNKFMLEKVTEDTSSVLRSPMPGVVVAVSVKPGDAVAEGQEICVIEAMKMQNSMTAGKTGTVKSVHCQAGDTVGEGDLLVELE
# T7 sequence (P05166 29-539): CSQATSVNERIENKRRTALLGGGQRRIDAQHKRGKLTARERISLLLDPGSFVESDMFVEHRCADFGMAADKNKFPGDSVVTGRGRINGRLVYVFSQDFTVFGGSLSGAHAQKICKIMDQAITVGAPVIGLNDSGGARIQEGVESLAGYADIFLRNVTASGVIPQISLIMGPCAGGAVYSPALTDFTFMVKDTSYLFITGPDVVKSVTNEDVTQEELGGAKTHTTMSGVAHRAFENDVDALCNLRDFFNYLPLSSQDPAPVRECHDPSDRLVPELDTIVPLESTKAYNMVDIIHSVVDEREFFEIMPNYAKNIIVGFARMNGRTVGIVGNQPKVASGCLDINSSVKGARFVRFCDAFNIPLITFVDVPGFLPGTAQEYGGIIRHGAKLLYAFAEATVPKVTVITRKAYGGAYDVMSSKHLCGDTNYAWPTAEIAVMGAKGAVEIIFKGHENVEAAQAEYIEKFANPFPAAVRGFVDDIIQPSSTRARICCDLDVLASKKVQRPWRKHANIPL
# Protocol: as §1, §2, §3
compound,measurement,setting,value
CN(Cc1cnc2nc(N)nc(N)c2n1)c1ccc(C(=O)N[C@@H](CCC(=O)O)C(=O)O)cc1 [Methotrexate],Association with the Methotrexate matrix,Nudix 5,consistently found; also recorded: direct interactions with the Methotrexate probe
same,Protein identified by Mass Spec.; New MTX interactor,[1],identified in the pull down in lane 9
same,Protein identified by Mass Spec.; New MTX interactor,[1]; listed as MTX,✓
same,Protein identified by Mass Spec.; New MTX interactor,[2],binds this enzyme directly
same,Protein identified by Mass Spec.; New MTX interactor,[2]; listed as MTX,✓
same,effect on activity of HPRT,HPRT,can reduce the activity of HPRT
same,Protein identified by Mass Spec.; New MTX interactor,Glycogen Phosphorylase,direct binder of Methotrexate
same,Protein identified by Mass Spec.; New MTX interactor,Glycogen Phosphorylase; listed as MTX,✓
same,Protein identified by Mass Spec.; New MTX interactor,[3],found to interact with Methotrexate
same,Protein identified by Mass Spec.; New MTX interactor,[3]; listed as MTX,✓
same,Association with the Methotrexate matrix,Nudix 1,consistently found
same,Association with the Methotrexate matrix,[4],GARS-derived peptides were isolated
same,Association with the Methotrexate matrix,AIR carboxylase,associated indirectly with Methotrexate
same,Association with the Methotrexate matrix,[5],consistently found; also recorded: pulled down consistently
same,Association with the Methotrexate matrix,[6],pulled down consistently
